Reference: the supplement of paper PMC10307832

Legend:
Assay in all cases: relative viability (nuclei count vs DMSO), 5 days (fraction); higher = more cells survive
[1] = test system: ChaGo-K-1
In short: (§1)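 Five library-drug doses in √10 steps were combined with a fixed anchor-drug dose, or a single drug was given alone, by pin tool to lung cancer cell lines in 1536-well plates the day after seeding. Nuclei were stained and counted after 5 days. Relative viability is the nuclei count in treated wells over that in vehicle wells, taken as the median of duplicate plates.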

[2] = test system: EMC-BAC-2
In short: as §1

[3] = test system: EPLC-272H
In short: as §1

[4] = test system: HCC-366
In short: as §1

[5] = test system: HCC-44
In short: as §1

[6] = test system: HCC-78
In short: as §1

[7] = test system: HCC-827
In short: as §1

[8] = test system: LCLC-103H
In short: as §1

[9] = test system: LK-2
In short: as §1

[10] = test system: LOU-NH91
In short: as §1

[11] = test system: LU99A
In short: as §1

[12] = test system: LXF-289
In short: as §1

[13] = test system: NCI-H1563
In short: as §1

[14] = test system: NCI-H1666
In short: as §1

[15] = test system: NCI-H1975
In short: as §1

[16] = test system: NCI-H2085
In short: as §1

[17] = test system: NCI-H2126
In short: as §1

[18] = test system: NCI-H23
In short: as §1

[19] = test system: NCI-H2405
In short: as §1

[20] = test system: NCI-H3122
In short: as §1

[21] = test system: RERF-LC-KJ
In short: as §1

[22] = test system: SK-LU-1
In short: as §1

[23] = test system: SW 1573
In short: as §1

[24] = test system: SW 900
In short: as §1

Structure (SMILES): COc1cc(N2CCC(C(N)=O)CC2)ccc1Nc1nc(N)c(Cl)c(Nc2ccccc2S(=O)(=O)C(C)C)n1 [HG-5-88-01] + N=C(N)NC(=N)NCCc1ccccc1 [Phenformin] (partner 250 µM)
- relative viability ([1]; first compound 0.04 µM): 0.586
- relative viability ([1]; first compound 0.1265 µM): 0.51
- relative viability ([1]; first compound 0.4 µM): 0.449
- relative viability ([1]; first compound 1.265 µM): 0.525
- relative viability ([1]; first compound 4 µM): 0.383
- relative viability ([2]; first compound 0.04 µM): 0.541
- relative viability ([2]; first compound 0.1265 µM): 0.491
- relative viability ([2]; first compound 0.4 µM): 0.442
- relative viability ([2]; first compound 1.265 µM): 0.507
- relative viability ([2]; first compound 4 µM): 0.486
- relative viability ([3]; first compound 0.04 µM): 0.352
- relative viability ([3]; first compound 0.1265 µM): 0.34
- relative viability ([3]; first compound 0.4 µM): 0.274
- relative viability ([3]; first compound 1.265 µM): 0.253
- relative viability ([3]; first compound 4 µM): 0.0477
- relative viability ([4]; first compound 0.04 µM): 0.685
- relative viability ([4]; first compound 0.1265 µM): 0.634
- relative viability ([4]; first compound 0.4 µM): 0.581
- relative viability ([4]; first compound 1.265 µM): 0.681
- relative viability ([4]; first compound 4 µM): 0.476
- relative viability ([5]; first compound 0.04 µM): 0.303
- relative viability ([5]; first compound 0.1265 µM): 0.156
- relative viability ([5]; first compound 0.4 µM): 0.201
- relative viability ([5]; first compound 1.265 µM): 0.159
- relative viability ([5]; first compound 4 µM): 0.0886
- relative viability ([6]; first compound 0.04 µM): 0.602
- relative viability ([6]; first compound 0.1265 µM): 0.584
- relative viability ([6]; first compound 0.4 µM): 0.447
- relative viability ([6]; first compound 1.265 µM): 0.306
- relative viability ([6]; first compound 4 µM): 0.324
- relative viability ([7]; first compound 0.04 µM): 0.432
- relative viability ([7]; first compound 0.1265 µM): 0.413
- relative viability ([7]; first compound 0.4 µM): 0.384
- relative viability ([7]; first compound 1.265 µM): 0.29
- relative viability ([7]; first compound 4 µM): 0.249
- relative viability ([8]; first compound 0.04 µM): 0.332
- relative viability ([8]; first compound 0.1265 µM): 0.342
- relative viability ([8]; first compound 0.4 µM): 0.311
- relative viability ([8]; first compound 1.265 µM): 0.308
- relative viability ([8]; first compound 4 µM): 0.302
- relative viability ([9]; first compound 0.04 µM): 0.516
- relative viability ([9]; first compound 0.1265 µM): 0.394
- relative viability ([9]; first compound 0.4 µM): 0.176
- relative viability ([9]; first compound 1.265 µM): 0.352
- relative viability ([9]; first compound 4 µM): 0.198
- relative viability ([10]; first compound 0.04 µM): 0.701
- relative viability ([10]; first compound 0.1265 µM): 0.721
- relative viability ([10]; first compound 0.4 µM): 0.664
- relative viability ([10]; first compound 1.265 µM): 0.421
- relative viability ([10]; first compound 4 µM): 0.416
- relative viability ([11]; first compound 0.04 µM): 0.801
- relative viability ([11]; first compound 0.1265 µM): 0.78
- relative viability ([11]; first compound 0.4 µM): 0.823
- relative viability ([11]; first compound 1.265 µM): 0.921
- relative viability ([11]; first compound 4 µM): 0.593
- relative viability ([12]; first compound 0.04 µM): 0.565
- relative viability ([12]; first compound 0.1265 µM): 0.589
- relative viability ([12]; first compound 0.4 µM): 0.415
- relative viability ([12]; first compound 1.265 µM): 0.51
- relative viability ([12]; first compound 4 µM): 0.431
- relative viability ([13]; first compound 0.04 µM): 0.7
- relative viability ([13]; first compound 0.1265 µM): 0.64
- relative viability ([13]; first compound 0.4 µM): 0.683
- relative viability ([13]; first compound 1.265 µM): 0.604
- relative viability ([13]; first compound 4 µM): 0.601
- relative viability ([14]; first compound 0.04 µM): 0.581
- relative viability ([14]; first compound 0.1265 µM): 0.57
- relative viability ([14]; first compound 0.4 µM): 0.544
- relative viability ([14]; first compound 1.265 µM): 0.558
- relative viability ([14]; first compound 4 µM): 0.459
- relative viability ([15]; first compound 0.04 µM): 0.437
- relative viability ([15]; first compound 0.1265 µM): 0.416
- relative viability ([15]; first compound 0.4 µM): 0.354
- relative viability ([15]; first compound 1.265 µM): 0.365
- relative viability ([15]; first compound 4 µM): 0.188
- relative viability ([16]; first compound 0.04 µM): 0.656
- relative viability ([16]; first compound 0.1265 µM): 0.799
- relative viability ([16]; first compound 0.4 µM): 0.685
- relative viability ([16]; first compound 1.265 µM): 0.622
- relative viability ([16]; first compound 4 µM): 0.395
- relative viability ([17]; first compound 0.04 µM): 0.552
- relative viability ([17]; first compound 0.1265 µM): 0.58
- relative viability ([17]; first compound 0.4 µM): 0.525
- relative viability ([17]; first compound 1.265 µM): 0.461
- relative viability ([17]; first compound 4 µM): 0.384
- relative viability ([18]; first compound 0.04 µM): 0.767
- relative viability ([18]; first compound 0.1265 µM): 0.833
- relative viability ([18]; first compound 0.4 µM): 0.786
- relative viability ([18]; first compound 1.265 µM): 0.868
- relative viability ([18]; first compound 4 µM): 0.441
- relative viability ([19]; first compound 0.04 µM): 0.46
- relative viability ([19]; first compound 0.1265 µM): 0.484
- relative viability ([19]; first compound 0.4 µM): 0.469
- relative viability ([19]; first compound 1.265 µM): 0.38
- relative viability ([19]; first compound 4 µM): 0.432
- relative viability ([20]; first compound 0.04 µM): 0.216
- relative viability ([20]; first compound 0.1265 µM): 0.17
- relative viability ([20]; first compound 0.4 µM): 0.146
- relative viability ([20]; first compound 1.265 µM): 0.129
- relative viability ([20]; first compound 4 µM): 0.15
- relative viability ([21]; first compound 0.04 µM): 0.421
- relative viability ([21]; first compound 0.1265 µM): 0.4
- relative viability ([21]; first compound 0.4 µM): 0.407
- relative viability ([21]; first compound 1.265 µM): 0.371
- relative viability ([21]; first compound 4 µM): 0.241
- relative viability ([22]; first compound 0.04 µM): 0.581
- relative viability ([22]; first compound 0.1265 µM): 0.594
- relative viability ([22]; first compound 0.4 µM): 0.507
- relative viability ([22]; first compound 1.265 µM): 0.463
- relative viability ([22]; first compound 4 µM): 0.288
- relative viability ([23]; first compound 0.04 µM): 0.335
- relative viability ([23]; first compound 0.1265 µM): 0.368
- relative viability ([23]; first compound 0.4 µM): 0.324
- relative viability ([23]; first compound 1.265 µM): 0.229
- relative viability ([23]; first compound 4 µM): 0.344
- relative viability ([24]; first compound 0.04 µM): 0.592
- relative viability ([24]; first compound 0.1265 µM): 0.545
- relative viability ([24]; first compound 0.4 µM): 0.622
- relative viability ([24]; first compound 1.265 µM): 0.671
- relative viability ([24]; first compound 4 µM): 0.408
